Assay results published in PubChem BioAssay (NCI).
Several values for one entry are separate records, joined by “and”; a condition that tells them apart may be missing. Equal entries are not always repeated.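 Where inhibition never reached the appropriate level, the endpoint shown equals the highest concentration tested. Otherwise, values were interpolated linearly from a five-concentration, 48-hour dose response in 96-well plates. GI50: concentration for 50% inhibition of growth. TGI denotes the concentration required for complete inhibition of growth.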

What was measured:
Test in all cases: NCI tumour cell line growth inhibition, 48 h
COLO 205 colon = tested on: COLO 205 colon
HCC-2998 colon = tested on: HCC-2998 colon
HCT-116 colon = tested on: HCT-116 colon
HOP-92 NSCLC = tested on: HOP-92 NSCLC
SK-MEL-28 melanoma = tested on: SK-MEL-28 melanoma
SNB-75 CNS = tested on: SNB-75 CNS
TK-10 renal = tested on: TK-10 renal
UACC-62 melanoma = tested on: UACC-62 melanoma
MCF7 breast = tested on: MCF7 breast
NCI-H522 lung = tested on: NCI-H522 lung

SMILES | TGI (COLO 205 colon) | TGI (HCC-2998 colon) | TGI (HCT-116 colon) | TGI (HOP-92 NSCLC) | TGI (SK-MEL-28 melanoma) | TGI (SNB-75 CNS) | TGI (TK-10 renal) | TGI (UACC-62 melanoma) | GI50 (COLO 205 colon) | GI50 (HCT-116 colon) | GI50 (HOP-92 NSCLC) | GI50 (MCF7 breast) | TGI (MCF7 breast) | GI50 (NCI-H522 lung) | TGI (NCI-H522 lung) | GI50 (SK-MEL-28 melanoma) | GI50 (SNB-75 CNS) | GI50 (TK-10 renal) | GI50 (UACC-62 melanoma) | GI50 (HCC-2998 colon)
CN(C)CCNC(=O)c1cccc2nc3ccc4cccnc4c3nc12 | 1.55 µM | 2.12 µM | 2.43 µM | 1.99 µM | 2.28 µM | 1.84 µM | 0.688 µM | 1.54 µM |  |  |  |  |  |  |  |  |  |  |  | 
O=C1OCC(c2ccc(O)cc2)=C1c1cc(O)c(O)c(O)c1 | > 100 µM |  | > 100 µM | > 100 µM | > 100 µM | > 100 µM | > 100 µM | > 100 µM | > 100 µM | 36 µM | > 100 µM | 77.5 µM | > 100 µM | > 100 µM | > 100 µM | > 100 µM | > 100 µM | > 100 µM | > 100 µM | 
COC1=CC(=O)C(Br)=CC1=O | 31 µM | > 100 µM |  | 29.8 µM | 34 µM | 29.1 µM | 35.8 µM | 32.1 µM |  |  |  |  |  |  | 23.9 µM |  |  |  |  | 
COC1=CC(=O)C2C(C1=O)[C@@H]1c3ccccc3OC(C)(C)[C@H]21 (some centres undefined) | 35.1 µM | > 100 µM | 29.7 µM | 35.4 µM | 32.8 µM | > 100 µM | 38.6 µM |  |  |  |  |  |  |  | 27.7 µM |  |  |  |  | 
Cc1cc(C)nc(NS(=O)(=O)c2ccc(Nc3c4ccccc4nc4c(C(=O)Nc5ccc(S(=O)(=O)Nc6cc(C)on6)cc5)ccc(Cl)c34)cc2)n1 |  | 32.6 µM | 40.5 µM |  | 69.4 µM | 84.1 µM | > 100 µM | 80.1 µM |  |  |  |  |  |  | 51.4 µM |  |  |  |  | 
COc1ccc2c3c(c(C(=O)O)oc13)CCC2 | > 100 µM | > 100 µM | > 100 µM | > 100 µM | > 100 µM | > 100 µM | > 100 µM | > 100 µM |  |  |  |  |  |  | > 100 µM |  |  |  |  | 
O=C(O)CNc1ccc(Cl)c(Cl)c1 | 41.7 µM |  | 44.7 µM | 51.6 µM |  | 94.1 µM | 58.7 µM | 90.4 µM |  |  |  |  | 38.7 µM |  | 38 µM |  |  |  |  | 
CC(=Nc1ccccc1)C1=C(O)C(Cc2cccc(F)c2)NC1=O (centres undefined) | 0.141 µM | 3.1 µM | > 39.4 µM | > 21.1 µM |  |  | > 100 µM | > 100 µM | 0.035 µM | 0.047 µM | 0.0242 µM | 0.0354 µM | > 100 µM | 0.0286 µM | 0.182 µM |  |  | 6.15 µM | 0.0546 µM | 0.144 µM
CCCN(CCC)CCc1cc(C(C)=O)n(S(=O)(=O)c2ccc(C)cc2)c1 | > 100 µM | > 100 µM | > 100 µM | > 100 µM | > 100 µM | > 100 µM | > 100 µM | > 100 µM |  |  |  |  |  |  | > 100 µM |  |  |  |  | 
O=C1NC(=O)C(=Cc2c3ccccc3cc3ccccc23)C(=O)N1 | > 100 µM |  | > 100 µM | > 100 µM | > 100 µM |  | > 100 µM | > 100 µM |  |  |  |  |  |  | > 100 µM |  |  |  |  | 
O=S(=O)(c1ccccc1)c1nccs1 | > 100 µM | > 100 µM | > 100 µM |  | > 100 µM | > 100 µM | > 100 µM | > 100 µM |  |  |  |  |  |  | > 100 µM |  |  |  |  | 
COc1cc2c(c(O)c1C)C(=O)CC(c1ccccc1)O2 (centres undefined) |  | > 100 µM | > 100 µM | 40.8 µM | > 100 µM | > 100 µM | 77.3 µM | > 100 µM |  |  |  |  |  |  | > 100 µM |  |  |  |  | 
Cc1cc(Br)cc(C)c1NC(=O)C(=O)C(C(=O)c1ccncc1)C1OC(=O)c2ccccc21 (centres undefined) | > 100 µM | > 100 µM | > 100 µM | > 100 µM |  |  | > 100 µM | > 100 µM |  |  |  |  |  |  | > 100 µM |  |  |  |  | 
COc1cccc2c1C(=O)c1c(O)c3c(c(O)c1C2=O)C[C@@](O)(C(C)=O)C[C@@H]3OC1CC([N+]([O-])(Cc2ccccc2)Cc2ccccc2)C(O)C(C)O1 (some centres undefined) |  | 3.07 µM |  | 3.14 µM |  | 4.25 µM | 3.37 µM | 2.83 µM |  |  |  |  |  |  | 2.68 µM |  |  |  |  | 
COc1cc(OC)cc(-c2nc3sccn3c2/C=N/N=C(N)N)c1 | 15.8 µM | 14.6 µM |  |  |  |  | 12.6 µM | 14.8 µM | 3.11 µM |  |  | 9.41 µM | 20.1 µM | 15.4 µM | > 50 µM |  |  | 6.29 µM | 8.03 µM | 7.55 µM
O=c1nc(NC(c2ccccc2)(c2ccccc2)c2ccccc2)ccn1CCCl | 64.7 µM | 28 µM | 37.1 µM | 27.6 µM | 28.6 µM | 41.8 µM | 56.2 µM |  |  |  |  |  |  |  | 41.4 µM |  |  |  |  | 
CC(=O)O[C@@]12CO[C@@H]1C[C@H](O)[C@@]1(C)C(=O)[C@H](O)C3=C(C)[C@@H](OC(=O)[C@H](O)[C@@H](NC(=O)OC(C)(C)C)c4ccccc4)C[C@@](O)([C@@H](OC(=O)c4ccccc4)C12)C3(C)C (some centres undefined) | 0.0251 µM | 0.00872 µM and 0.0429 µM | 50 µM and > 100 µM | 17.1 µM and 8.9 µM | 50.7 µM |  | 12.1 µM and > 100 µM | 33.7 µM |  | < 0.005 µM | < 0.005 µM and 0.0181 µM | < 0.005 µM | 50 µM and 33.5 µM |  | 52.3 µM | 12.7 µM |  |  | 0.0922 µM | < 0.005 µM
Cc1c(NC(=O)CCl)c(=O)oc2c(C)c3occc(=O)c3cc12 | 40 µM | 32.8 µM | 25.9 µM | 27.5 µM | 39.2 µM | 8.47 µM | 42.6 µM |  |  |  |  |  | 66.2 µM |  |  |  |  |  |  | 
CC(N)Cc1ccc(Cl)cc1 (centres undefined) | > 100 µM | > 100 µM | > 100 µM | > 100 µM | > 100 µM | > 100 µM | > 100 µM | > 100 µM |  |  |  |  |  |  | > 100 µM |  |  |  |  | 
CCO/C(CCn1[nH]c(=O)c(Cl)c(Cl)c1=O)=N\NC(=O)C(=O)NN | > 100 µM | > 100 µM |  |  | > 100 µM | > 100 µM | > 100 µM | > 100 µM |  |  |  |  |  |  | > 100 µM |  |  |  |  | 
O=c1cc(-c2ccccc2)oc2ccc(OC/C(=N/O)c3ccc(F)cc3)cc12 | 8.19 µM | 12.5 µM | 9.05 µM | 41.5 µM | 16.2 µM | > 50 µM | > 50 µM | 22.8 µM | 2.23 µM | 2.97 µM | 11.4 µM |  |  | 4.68 µM | > 50 µM | 3.33 µM | 4.64 µM | > 50 µM | 5.5 µM | 4.41 µM
